Results: patent US20230357447A1, “TUMOR ACTIVATED MULTISPECIFIC ANTIBODIES FOR TARGETING CD28 AND PD-L1 AND METHODS OF USE THEREOF” (Janux Therapeutics, Inc., priority 2022, published 2023)

Each substance was assayed on anti-CD28 scFv (assay: Phage binding ELISA (panning) of clonal phage on anti-CD28 scFv, with or without CD28 soluble protein). Conditions: Phage binding ELISA; captured anti-CD28 scFv pre-incubated with CD28 soluble protein.
Procedure: Clonal phage were harvested as crude supernatants and screened via standard enzyme linked immunosorbent assays (ELISAs). […] Prior to the addition of clonal phage, wells were incubated with blocking buffer and CD28 soluble protein or blocking buffer alone. Without washing or aspirating, clonal phage supernatants were then added to the wells and incubated for a short time. Wells were then washed followed by detection of bound phage using a horse radish peroxidase conjugated anti-M13 antibody. Clonal phage of interest were then sent for sequence analysis.
In the case of Phage-92 (MDWCPRHLWHECFF), the “CD28 scFv signal in presence of CD28” value is reported as 0.373. Phage-99 (MDWCPRYLWNMCFH) was tested, and the “CD28 scFv signal in presence of CD28” value was 0.404. In the case of Phage-93 (MDWCPRYLWTVCFS), the “CD28 scFv signal in presence of CD28” value is reported as 0.372.

Same assay, conditions: Phage binding ELISA; captured biotinylated anti-CD28 scFv, blocking buffer alone
For Phage-92 (MDWCPRHLWHECFF), the “CD28 scFv signal” value was 2.583. In the case of Phage-99 (MDWCPRYLWNMCFH), the “CD28 scFv signal” value is reported as 2.564. For Phage-93 (MDWCPRYLWTVCFS), the “CD28 scFv signal” value was 2.582.

Same assay, conditions: Phage binding ELISA; clonal phage supernatant, background wells
Phage-97 (MDWCPKDLWDYCFA) showed a Backgroud signal of 0.078. With Phage-151 (MDFCPISLWHECFF) the Backgroud signal was 0.081. With Phage-136 (MHWCPIYLWDECFN) the Backgroud signal was 0.071. For Phage-120 (MDWCPRDLWHACFS), the Backgroud signal was 0.074. With Phage-153 (MDWCPRHLWDLCFF) the Backgroud signal was 0.093. Phage-92 (MDWCPRHLWHECFF) was tested, and the Backgroud signal was 0.364. Phage-148 (MHWCPEYLWNECFA) was tested, and the Backgroud signal was 0.074. Substance Phage-139 (MDWCPRDLWDVCFA) has a Backgroud signal of 0.096. With Phage-149 (MDWCPRDLWAVCFA) the Backgroud signal was 0.070. With Phage-131 (MDWCPRSLWIYCFN) the Backgroud signal was 0.113. For Phage-154 (MDWCPRDLWNVCFA), the Backgroud signal was 0.114. Substance Phage-140 (MDWCPMDLWDVCFN) has a Backgroud signal of 0.090. Work on Phage-134 (MDWCPSYLWHECFA) yielded a Backgroud signal of 0.096. Phage-116 (MDWCPRDLWYACFA) was tested, and the Backgroud signal was 0.072. Phage-94 (MDWCPRDLWSLCFY) gave a Backgroud signal of 0.065. Phage-117 (MDWCPRYLWFECFS) gave a Backgroud signal of 0.079. Work on Phage-95 (MDWCPRFLWSECFN) yielded a Backgroud signal of 0.062. Work on Phage-121 (MDWCPRDLWHVCFF) yielded a Backgroud signal of 0.068. Substance Phage-147 (MHWCPRDLWVVCFN) has a Backgroud signal of 0.070. In the case of Phage-99 (MDWCPRYLWNMCFH), the Backgroud signal is reported as 0.114. Phage-89 (MDWCPRALWNVCFN) was tested, and the Backgroud signal was 0.065. For Phage-141 (MDWCPRSLWNVCFF), the Backgroud signal was 0.106. Phage-93 (MDWCPRYLWTVCFS) was tested, and the Backgroud signal was 0.115.

Same assay, conditions: clonal phage supernatant on captured anti-CD28 scFv pre-incubated with CD28 soluble protein
With Phage-78 (MDWCPRHLWHECFN) the “Phage binding ELISA CD28 scFv signal in presence of CD28” value was 0.704. With Phage-49 (MSWCPIHLWNECFN) the “Phage binding ELISA CD28 scFv signal in presence of CD28” value was 0.284. Phage-44 (MDWCPIALWAECFN) was tested, and the “Phage binding ELISA CD28 scFv signal in presence of CD28” value was 0.224. Phage-82 (MDWCPRDLWTECFA) was tested, and the “Phage binding ELISA CD28 scFv signal in presence of CD28” value was 0.151. Phage-60 (MDWCPRTLWYLCFN) was tested, and the “Phage binding ELISA CD28 scFv signal in presence of CD28” value was 1.198.

Same assay, conditions: clonal phage supernatant on captured biotinylated anti-CD28 scFv; blocking buffer alone
In the case of Phage-78 (MDWCPRHLWHECFN), the “Phage binding ELISA CD28 scFv signal” value is reported as 2.654. In the case of Phage-49 (MSWCPIHLWNECFN), the “Phage binding ELISA CD28 scFv signal” value is reported as 2.057. In the case of Phage-44 (MDWCPIALWAECFN), the “Phage binding ELISA CD28 scFv signal” value is reported as 2.458. For Phage-82 (MDWCPRDLWTECFA), the “Phage binding ELISA CD28 scFv signal” value was 2.634. In the case of Phage-60 (MDWCPRTLWYLCFN), the “Phage binding ELISA CD28 scFv signal” value is reported as 2.593.

Same assay, conditions: clonal phage supernatant; background (no anti-CD28 scFv signal)
In the case of Phage-409 (LHWCPITMWTYCYY), the “Phage binding ELISA Backgroud signal” value is reported as 0.229. In the case of Phage-418 (MYWCPKYMWSECFA), the “Phage binding ELISA Backgroud signal” value is reported as 0.072. With Phage-394 (MDWCPRYMWSDCFF) the “Phage binding ELISA Backgroud signal” value was 0.082. In the case of Phage-403 (MSWCPWDMWNECFA), the “Phage binding ELISA Backgroud signal” value is reported as 0.069. With Phage-401 (MDWCPLDMWVLCFA) the “Phage binding ELISA Backgroud signal” value was 0.085. In the case of Phage-425 (MDLCPTAMWNRCFY), the “Phage binding ELISA Backgroud signal” value is reported as 0.063. Phage-424 (ITQCPSTMWNRCSV) was tested, and the “Phage binding ELISA Backgroud signal” value was 0.067. With Phage-410 (IDWCPRYMWHECFF) the “Phage binding ELISA Backgroud signal” value was 0.098. For Phage-404 (MDWCPRDMWTSCFN), the “Phage binding ELISA Backgroud signal” value was 0.100. Phage-407 (MNWCPIHMWNQCFA) was tested, and the “Phage binding ELISA Backgroud signal” value was 0.085. In the case of Phage-444 (VNQCTRYRWAECLN), the “Phage binding ELISA Backgroud signal” value is reported as 0.465. Phage-380 (MDYCPSYLWHECFA) was tested, and the “Phage binding ELISA Backgroud signal” value was 0.065. In the case of Phage-449 (MVDCPLISFDECLA), the “Phage binding ELISA Backgroud signal” value is reported as 0.246. In the case of Phage-400 (MHWCPTYMWSECFA), the “Phage binding ELISA Backgroud signal” value is reported as 0.070. Phage-437 (MDWCPVDRWADCFN) was tested, and the “Phage binding ELISA Backgroud signal” value was 0.071. In the case of Phage-448 (MAWCPWASFDECLA), the “Phage binding ELISA Backgroud signal” value is reported as 0.104. With Phage-405 (MDWCPMSMWAFCFD) the “Phage binding ELISA Backgroud signal” value was 0.102. For Phage-440 (MDWCPRDRWVDCFN), the “Phage binding ELISA Backgroud signal” value was 0.106.

Same assay, conditions: clonal phage supernatant; background signal
Phage-330 (MDWCPRFLWDVCFN) was tested, and the “Phage binding ELISA Backgroud signal” value was 0.100. For Phage-311 (MDWCPRDLWYQCFN), the “Phage binding ELISA Backgroud signal” value was 0.069. For Phage-253 (MVGCATSMWNRCLT), the “Phage binding ELISA Backgroud signal” value was 0.256. Phage-331 (MDWCPRHLWDECFY) was tested, and the “Phage binding ELISA Backgroud signal” value was 0.098. With Phage-244 (MDWCPRYLWHECFD) the “Phage binding ELISA Backgroud signal” value was 0.071. With Phage-353 (IDWCPLHLWHECYH) the “Phage binding ELISA Backgroud signal” value was 0.067. With Phage-261 (MDWCPMFMWHECFN) the “Phage binding ELISA Backgroud signal” value was 0.102. With Phage-40 (MDWCPIDMWDQCFN) the “Phage binding ELISA Backgroud signal” value was 0.061. In the case of Phage-181 (MYWCPRDLWDVCFN), the “Phage binding ELISA Backgroud signal” value is reported as 0.145. Phage-62 (MDWCPSYLWNECFF) was tested, and the “Phage binding ELISA Backgroud signal” value was 0.065. In the case of Phage-237 (MDWCPSYLWHECFF), the “Phage binding ELISA Backgroud signal” value is reported as 0.067. In the case of Phage-78 (MDWCPRHLWHECFN), the “Phage binding ELISA Backgroud signal” value is reported as 0.070. In the case of Phage-49 (MSWCPIHLWNECFN), the “Phage binding ELISA Backgroud signal” value is reported as 0.083. With Phage-44 (MDWCPIALWAECFN) the “Phage binding ELISA Backgroud signal” value was 0.111. For Phage-82 (MDWCPRDLWTECFA), the “Phage binding ELISA Backgroud signal” value was 0.060. With Phage-60 (MDWCPRTLWYLCFN) the “Phage binding ELISA Backgroud signal” value was 0.508.
